Common to all, as to assay type: cell-based
The test system of one assay is Serratia marcescens. As to the kind of experiment: MIC against Gram-negative bacteria: Serratia marcescens. Particulars: 5×10^5 CFU/mL. Here is the method:
(§1) 1. Gram-negative bacteria, such as E. coli BL21, Pseudomonas aeruginosa, Klebsiella pneumonia, Enterobacter cloacae, Aeromonas hydrophila, Citrobacter diversus, Moraxella catarrhalis, Proteus mirabilis, Proteus vulgaris, Serratia marcescens, etc were streaked on solid LB medium and cultured respectively. Then, typical clones were picked, inoculated into common liquid LB medium respectively, and cultured at 37° C. with shaking at 185 rpm until the McFarland specific turbidity was 0.5. The bacterial culture of each of Gram-negative bacteria was centrifuged at 4000×g for 3 min, the supernatant was discarded, and the thalli were resuspended with fresh LB medium.
(§2) 2. The above-mentioned bacterial suspensions were diluted and inoculated into 96-well plates with the final concentration of the bacterial suspension being 5×10^5 CFU/mL per well.
(§3) 3. Each of the purified human-originated EGF domain proteins (PRT1 to PRT1498 in Table 1) was added to each of the above wells and subjected to two-fold serial dilution in concentration. Three parallel wells were set up for each concentration in the gradient.
(§4) 4. The above-mentioned 96-well plates were placed and cultured at 37° C. in shaking incubator shaking at 175 rpm. […] The minimal inhibitory concentration MIC is defined as the lowest concentration of the recombinant protein at which there is no growth of the bacteria.

For another assay, the system named is Citrobacter diversus. As to the kind of experiment: MIC against Gram-negative bacteria: Citrobacter diversus. Particulars: 5×10^5 CFU/mL. The protocol:
as §1, §2, §3, §4

The subject of a further assay is Proteus vulgaris. As to the kind of experiment: MIC against Gram-negative bacteria: Proteus vulgaris. Particulars: 5×10^5 CFU/mL. Here is the method: as §1, §2, §3, §4
In another assay the test system is Proteus mirabilis. As to the kind of experiment: MIC against Gram-negative bacteria: Proteus mirabilis. Particulars: 5×10^5 CFU/mL. Here is the method: as §1, §2, §3, §4
For another assay, the system named is Klebsiella pneumonia. As to the kind of experiment: MIC against Gram-negative bacteria: Klebsiella pneumonia. Particulars: 5×10^5 CFU/mL. The protocol: as §1, §2, §3, §4
The test system of the next assay is Pseudomonas aeruginosa. As to the kind of experiment: MIC against Gram-negative bacteria: Pseudomonas aeruginosa. Particulars: 5×10^5 CFU/mL. Here is the method:
as §1, §2, §3, §4

The next assay deals with E. coli DH5α. As to the kind of experiment: Antibacterial activity: MIC and growth curve against E. coli DH5α in 96-well plate. Particulars: minimal inhibitory concentration against E. coli DH5α; 96-well plate, 5×10^5 CFU/mL, 37° C., judged after 8 h. Here is the method:
1. E. coli DH5α was exemplified. E. coli DH5α was streaked and cultured on LB solid medium. Then, a typical clone was picked and inoculated into common LB liquid medium, cultured at 37° C. with shaking at 185 rpm until the logarithmic growth phase was reached (OD600 of about 0.5). The bacterial culture was centrifuged at 4000×g for 3 min, the supernatant was discarded, and the thalli were resuspended with fresh LB medium.
2. The above-mentioned bacterial suspension was diluted and inoculated into a 96-well plate with the total volume of 100 μL per well and a bacterial count of 5×10^5 CFU/mL.
3. The recombinant protein hF VII-EGF1 was added to the above-mentioned wells with the final protein concentration in the well of the highest protein concentration being 50 μg/mL. Basing on this final concentration, a two-fold serial dilution was performed till a protein concentration gradient consisting of 50, 25, and 12.5 μg/mL was set up. Three parallel wells were set up for each concentration in the gradient.
4. The above-mentioned 96-well plate was placed and cultured at 37° C. in shaking incubator shaking at 175 rpm. Samples were taken every 30 min, the absorbance values were determined at 600 nm wavelength under a ultra violet spectrophotometer, and an inhibition curve was plotted. […] The minimal inhibitory concentration MIC is defined as the lowest concentration of the recombinant protein at which there is no growth of the bacteria.
According to the experimental procedures in Example 14, the minimal inhibitory concentrations (MIC, μg/mL) of the other human-originated EGF domain proteins (PRT2 to PRT1498 in Table 1) for E. coli DH5α were determined.

The test system of another assay is E. coli BL21. As to the kind of experiment: MIC against Gram-negative bacteria: E. coli BL21. Particulars: 5×10^5 CFU/mL. Here is the method:
as §1, §2, §3, §4

In a further assay the test system is Enterobacter cloacae. As to the kind of experiment: MIC against Gram-negative bacteria: Enterobacter cloacae. Particulars: 5×10^5 CFU/mL. Here is the method: as §1, §2, §3, §4
Another assay concerns Moraxella catarrhalis. As to the kind of experiment: MIC against Gram-negative bacteria: Moraxella catarrhalis. Particulars: 5×10^5 CFU/mL. Here is the method: as §1, §2, §3, §4
A further assay has as its system Aeromonas hydrophila. As to the kind of experiment: MIC against Gram-negative bacteria: Aeromonas hydrophila. Particulars: 5×10^5 CFU/mL. Here is the method: as §1, §2, §3, §4
Where [1] appears, read: 10 h cultivation at 37° C., two-fold serial dilution.

“PRT525 (CNCNRDGTEPGVCDPGTGACLCKENVEGTECNVCREGSFHLDPANLKGCTS; listed as Homo sapiens)”: the “MIC against S. marcescens” value in the assay on Serratia marcescens (96-well plate, 37° C., 10 h) is 25 µg/mL. Also, in the assay with Citrobacter diversus (96-well plate, 37° C., 10 h), the “MIC against C. diversus” value amounted to 25 µg/mL. In addition, in the assay with Proteus vulgaris (96-well plate, 37° C., 10 h), the “MIC against P. vulgaris” value is 12.5 µg/mL. Also, the “MIC against P. mirabilis” value against Proteus mirabilis (96-well plate, 37° C., 10 h) worked out at 25 µg/mL. Also, the “MIC against K. pneumonia” value in the assay with Klebsiella pneumonia (96-well plate, 37° C., 10 h) amounted to 50 µg/mL. Moreover, the “MIC against P. aeruginosa” value against Pseudomonas aeruginosa (96-well plate, 37° C., 10 h) came to 25 µg/mL. In addition, the MIC with E. coli DH5α amounted to 25 µg/mL. Further, the “MIC against E. coli BL21” value against E. coli BL21 (96-well plate, 37° C., 10 h) stood at 12.5 µg/mL. The “MIC against E. cloacae” value in the assay with Enterobacter cloacae (96-well plate, 37° C., 10 h) is 25 µg/mL. In the assay with Moraxella catarrhalis (96-well plate, 37° C., 10 h), the “MIC against M. catarrhalis” value worked out at 50 µg/mL. In the assay on Aeromonas hydrophila (96-well plate, 37° C., 10 h), the “MIC against A. hydrophila” value turned out to be 12.5 µg/mL.
On to “PRT1498 (PESPCLQNPCQNDGQCREQGATFTCECEVGYGGGLCM; listed as Homo sapiens)”, for which, in the assay with Serratia marcescens (Serratia marcescens, 96-well plate, 37° C., 10 h), the “MIC (μg/mL) S. marcescens” value is 12.5 µg/mL. Further, the “MIC (μg/mL) C. diversus” value in the assay on Citrobacter diversus (Citrobacter diversus, 96-well plate, 37° C., 10 h) turned out to be 50 µg/mL. Besides, in the assay on Proteus vulgaris (Proteus vulgaris, 96-well plate, 37° C., 10 h), the “MIC (μg/mL) P. vulgaris” value amounted to 12.5 µg/mL. Moreover, the “MIC (μg/mL) P. mirabilis” value against Proteus mirabilis (Proteus mirabilis, 96-well plate, 37° C., 10 h) was determined as 50 µg/mL. The “MIC (μg/mL) K. pneumonia” value with Klebsiella pneumonia (Klebsiella pneumonia, 96-well plate, 37° C., 10 h) was found to be 12.5 µg/mL. In addition, in the assay with Pseudomonas aeruginosa (Pseudomonas aeruginosa, 96-well plate, 37° C., 10 h), the “MIC (μg/mL) P. aeruginosa” value was 12.5 µg/mL. Moreover, the MIC against E. coli DH5α turned out to be 50 µg/mL. The “MIC (μg/mL) E. coli BL21” value against E. coli BL21 (E. coli BL21, 96-well plate, 37° C., 10 h) came to 25 µg/mL. Further, the “MIC (μg/mL) E. cloacae” value with Enterobacter cloacae (Enterobacter cloacae, 96-well plate, 37° C., 10 h) was found to be 50 µg/mL. The “MIC (μg/mL) M. catarrhalis” value in the assay with Moraxella catarrhalis (Moraxella catarrhalis, 96-well plate, 37° C., 10 h) was determined as 12.5 µg/mL. In addition, the “MIC (μg/mL) A. hydrophila” value in the assay on Aeromonas hydrophila (Aeromonas hydrophila, 96-well plate, 37° C., 10 h) turned out to be 12.5 µg/mL.
For the substance “PRT1422 (DVDDCILEPSPCPQRCVNTQGGFECHCYPNYDLVDGECV; listed as Homo sapiens)”, the “MIC against S. marcescens” value in the assay on Serratia marcescens (Serratia marcescens, 10 h cultivation at 37° C.) is 12.5 µg/mL. In addition, the “MIC against C. diversus” value with Citrobacter diversus (Citrobacter diversus, 10 h cultivation at 37° C.) was 12.5 µg/mL. For the same substance, in the assay on Proteus vulgaris (Proteus vulgaris, 10 h cultivation at 37° C.), the “MIC against P. vulgaris” value was 50 µg/mL. Further, the “MIC against P. mirabilis” value against Proteus mirabilis (Proteus mirabilis, 10 h cultivation at 37° C.) was 12.5 µg/mL. Also, the “MIC against K. pneumonia” value against Klebsiella pneumonia (Klebsiella pneumonia, 10 h cultivation at 37° C.) stood at 50 µg/mL. For the same substance, the “MIC against P. aeruginosa” value in the assay with Pseudomonas aeruginosa (Pseudomonas aeruginosa, 10 h cultivation at 37° C.) came to 12.5 µg/mL. Also, in the assay with E. coli DH5α, the MIC was 12.5 µg/mL. Moreover, the “MIC against E. coli BL21” value in the assay with E. coli BL21 (E. coli BL21, 10 h cultivation at 37° C.) was determined as 12.5 µg/mL. Besides, in the assay on Enterobacter cloacae (Enterobacter cloacae, 10 h cultivation at 37° C.), the “MIC against E. cloacae” value came out at 12.5 µg/mL. The “MIC against M. catarrhalis” value with Moraxella catarrhalis (Moraxella catarrhalis, 10 h cultivation at 37° C.) was found to be 50 µg/mL. The “MIC against A. hydrophila” value against Aeromonas hydrophila (Aeromonas hydrophila, 10 h cultivation at 37° C.) stood at 50 µg/mL.
For “PRT1063 (ELSPCRINNGGCQDLCLLTHQGHVNCSCRGGRILQDDLTCR; listed as Homo sapiens)”, the “MIC S. marcescens” value with Serratia marcescens (setting [1]) amounted to 12.5 µg/mL. Further, in the assay on Citrobacter diversus (setting [1]), the “MIC C. diversus” value was 12.5 µg/mL. Further, the “MIC P. vulgaris” value in the assay with Proteus vulgaris (setting [1]) was 25 µg/mL. Moreover, the “MIC P. mirabilis” value against Proteus mirabilis (setting [1]) came out at 25 µg/mL. The “MIC K. pneumonia” value in the assay on Klebsiella pneumonia (setting [1]) worked out at 25 µg/mL. For the same substance, the “MIC P. aeruginosa” value with Pseudomonas aeruginosa (setting [1]) turned out to be 50 µg/mL. This substance also showed an MIC against E. coli DH5α of 12.5 µg/mL. The “MIC E. coli BL21” value in the assay with E. coli BL21 (setting [1]) is 25 µg/mL. Also, the “MIC E. cloacae” value with Enterobacter cloacae (setting [1]) amounted to 12.5 µg/mL. For the same substance, in the assay with Moraxella catarrhalis (setting [1]), the “MIC M. catarrhalis” value was determined as 50 µg/mL. In addition, the “MIC A. hydrophila” value against Aeromonas hydrophila (setting [1]) came out at 50 µg/mL.

In general, MIC refers to the smallest concentration in the dilution series that meets the test's criterion for growth inhibition.

The record behind these values is US9833497B2, “Human originated EGF domain proteins and use of the same” (CHENGDU SOURCEBIO LIMITED-LIABILITY COMPANY, priority 2013, dated 2017).
